Patent US8846715B2, “(2S,3R)-N-(2((3-pyridinyl)methyl)-1-azabicyclo[2.2.2]oct-3-yl)benzofuran-2-carboxamide novel salt forms, and methods of use thereof” (Targacept, Inc., priority 2007, dated 2014)
Entries after “also recorded” stand apart in the source; their conditions may differ.

Columns and labels:
[1] = Water solubility (salt screening); format: physicochemical
Protocol: Thermodynamic Aqueous Solubility by HPLC
The suspension was equilibrated at 25° C. for 24 h, and then the pH was measured. The suspension was then filtered through a glass fiber C filter into a 96 well plate. The filtrate was then diluted by a factor of 101. Quantitation was by HPLC with reference to a standard solution of approximately 0.1 mg/mL in DMSO. Different volumes of the standard, diluted and undiluted sample solutions were injected. The solubility was calculated using the peak areas determined by integration of the peak found at the same retention time as the principal peak in the standard injection. If there was sufficient solid in the filter plate, the XRPD was collected.

[2] = Hygroscopicity (salt screening); format: physicochemical
Protocol: Sorption isotherms were determined on either or both of two instruments. Some were experiments were run using a VTI Corporation SGA-100 moisture sorption analyzer, controlled by VTI FlowSystem 4 software. The sample temperature was maintained at 25° C. with the aid of a Polyscience constant temperature bath. The humidity was controlled by mixing streams of dry and wet nitrogen. The weight change as a function of % RH was monitored using a Cahn Digital Recording Balance D-200 with an accuracy of +/−0.0001 g.
Typically a 10-20 mg sample was placed on the tared balance pan under ambient conditions. The sample was dried at 50° C. for 1 h. The standard adsorption isotherm was performed at 25° C. at 5% RH intervals over a 5-95% RH range, and the desorption isotherm was similarly done at 25° C. at 5% RH intervals over a 95-5% RH range. Sample equilibration criteria included 0.0100 wt % in 5 min or a maximum equilibration time of 180 min for each % RH data point.
Some sorption isotherms were obtained using a Hiden IGASorp moisture sorption analyser, controlled by CFRSorp software. The sample temperature was maintained at 25° C. by a Huber re-circulating water bath. The humidity was controlled by mixing streams of dry and wet nitrogen, with a total flow rate of 250 mL/min. The relative humidity was measured by a calibrated Vaisala RH probe (dynamic range of 0-95% RH), located near the sample. The weight change, (mass relaxation) of the sample as a function of % RH was constantly monitored by the microbalance (accuracy ±0.001 mg). Typically 10-20 mg of sample was placed in a tared mesh stainless steel basket under ambient conditions. The sample was loaded and unloaded at 40% RH and 25° C. (typical ambient conditions). A moisture sorption isotherm was performed as outlined below (2 scans giving 1 complete cycle). The standard isotherm was performed at 25° C. at 10% RH intervals over a 0-90% RH range.
The software uses a least squares minimization procedure together with a model of the mass relaxation, to predict an asymptotic value. The measured mass relaxation value must be within 5% of that predicted by the software, before the next % RH value is selected. The minimum equilibration time was set to 1 h and the maximum to 4 h. Typically, samples were recovered after completion of the isotherm and re-analyzed by XRPD.

[3] = Solid state stability by XRPD, 40° C./75% RH; format: physicochemical; conditions: 1 week at 40° C./75% RH
Protocol: X-Ray Powder Diffraction patterns were collected either or both of two instruments. Some were collected on a Siemens D5000 diffractometer using CuKα radiation (40 kV, 40 mA), 0-0 goniometer, V20 divergence and receiving slits, a graphite secondary monochromator and a scintillation counter. The instrument was performance checked using a certified Corundum standard (NIST 1976). Samples run under ambient conditions were prepared as flat plate specimens using powder as received. Approximately 35 mg of the sample was gently packed into a cavity cut into polished, zero-background (510) silicon wafer. The sample was rotated in its own plane during analysis, scanning from 2° to 42° in steps of 0.05° at 4 seconds per step, using CuKα1 (λ=1.5406 Å).
The tosylate salt, specifically the crystalline mono salt, was confirmed and the diffraction pattern is shown in FIG. 14 using CuKα radiation (40 kV, 40 mA), 0-0 goniometer, V20 divergence and receiving slits, a graphite secondary monochromator, and a scintillation counter. […] Likely, the change is due to a more hydrated form.

rats [4] = assay: Object recognition (OR) paradigm; format: in vivo
mouse 5HT3 receptor = biological target: T1, mouse 5HT3 receptor (Mus musculus, UniProt P23979); assay: Radioligand binding at mouse 5HT3 receptor; conditions: read-out: Inhibition of radioligand binding at mouse 5HT3 receptor
T1 sequence (P23979 24-489): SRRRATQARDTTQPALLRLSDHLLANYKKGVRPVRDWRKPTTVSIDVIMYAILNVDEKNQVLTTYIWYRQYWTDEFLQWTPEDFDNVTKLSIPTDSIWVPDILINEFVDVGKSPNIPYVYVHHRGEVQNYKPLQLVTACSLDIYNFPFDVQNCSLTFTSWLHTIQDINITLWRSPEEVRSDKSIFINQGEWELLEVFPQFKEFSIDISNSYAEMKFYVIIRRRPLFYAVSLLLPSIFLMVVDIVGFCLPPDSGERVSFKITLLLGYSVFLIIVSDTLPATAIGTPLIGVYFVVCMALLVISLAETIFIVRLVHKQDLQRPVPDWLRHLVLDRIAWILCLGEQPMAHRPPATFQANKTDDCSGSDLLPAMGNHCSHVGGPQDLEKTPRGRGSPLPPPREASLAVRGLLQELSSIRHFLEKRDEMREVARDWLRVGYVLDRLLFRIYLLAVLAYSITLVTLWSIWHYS

human 5HT3 receptor = biological target: T2, human 5HT3 receptor (Homo sapiens, UniProt P46098); assay: Radioligand binding at human 5HT3 receptor; conditions: read-out: Inhibition of radioligand binding at human 5HT3 receptor
T2 sequence (P46098 24-478): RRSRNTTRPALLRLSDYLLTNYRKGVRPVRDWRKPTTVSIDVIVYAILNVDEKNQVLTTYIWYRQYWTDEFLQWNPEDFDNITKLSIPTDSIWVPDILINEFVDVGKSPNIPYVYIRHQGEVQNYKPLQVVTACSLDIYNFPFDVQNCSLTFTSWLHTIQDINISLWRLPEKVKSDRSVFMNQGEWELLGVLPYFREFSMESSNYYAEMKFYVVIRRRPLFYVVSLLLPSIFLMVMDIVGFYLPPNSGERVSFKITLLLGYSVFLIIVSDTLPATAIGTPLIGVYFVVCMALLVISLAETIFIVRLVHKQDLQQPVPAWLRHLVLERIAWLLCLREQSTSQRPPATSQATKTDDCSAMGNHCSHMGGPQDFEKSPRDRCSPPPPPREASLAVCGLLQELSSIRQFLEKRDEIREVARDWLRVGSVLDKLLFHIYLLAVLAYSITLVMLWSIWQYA

rats [5] = conditions: 0.3 and 1.0 mg/kg s.c., apomorphine 1.0 mg/kg (FIG. 8)
Protocol: The reversal of apomorphine-induced locomotor activity (APO LOCO) assay was performed in accord with the description of Roux et al., Curr.

rats [6] = assay: MK-801 induced deficits in the OR task; format: in vivo; conditions: 0.3 and 1 mg/kg i.p. (FIGS. 5A, 5B)
human α7 NNRs = human α7 NNRs (Homo sapiens, UniProt P36544); assay: cell-based; conditions: read-out: E. (Emax) of ACh response
Protocol: Mature (>9 cm) female Xenopus laevis African toads (Nasco, Ft. Atkinson, Wis.) were used as a source of oocytes. Prior to surgery, the toads were anesthetized by placing the animal in a 1.5 g/L solution of 3-aminobenzoic acid ethyl ester for 30 min. Oocytes were removed from an incision made in the abdomen.
Subsequently, stage 5 oocytes were isolated and injected with 50 mL (5-20 ng) each of the human α7 cRNA. Recordings were made 2 to 7 days after injection. Fresh acetylcholine (ACh) stock solutions were made daily in Ringer's solution.
Experiments were conducted using OpusXpress 6000A (Axon Instruments, Union City Calif.). […]
Each oocyte received an initial control application of ACh, then an experimental drug application, and then a follow-up control application of ACh (300 μM). Responses to experimental drug applications were calculated relative to the preceding ACh control responses in order to normalize the data, compensating for the varying levels of channel expression among the oocytes. […] Means and standard errors (SEM) were calculated from the normalized responses of at least four oocytes for each experimental concentration. For concentration-response relations, data derived from net charge analyses were plotted using Kaleidagraph 3.0.2 (Abelbeck Software; Reading, Pa.), and curves were generated from the Hill equation.

[7] = biological target: rat α7 NNRs stably expressed in GH4C1 (mammalian) cells (Rattus norvegicus, UniProt Q05941); assay: Patch clamp electrophysiology, rat α7 NNR in GH4C1 cells
Protocol: Electrophysiological measurement of α7 NNR response were taken in two expression systems: rat α7 NNR in mammalian GH4C1 cells and human α7 NNR in Xenopus oocytes.
Electrophysiological measurements of agonist activity were achieved using the Dynaflow rapid perfusion system and patch clamp using this GH4C1 cell expression system.
Whole-cell currents recorded with an Axopatch 700A amplifier were filtered at 1 kHz and sampled at 5 kHz by a PCI card (National Instrument). […] Cells were recorded at room temperature in the following extracellular medium: 130 mM NaCl, 5 mM KCl, 2 mM CaCl2, 2 mM MgCl2, 10 mM HEPES, adjusted to pH 7.4 with aqueous NaOH. […] Under these conditions, the macro-current activity obtained with NNR whole-cell recording lasts up to 60 min when elicited with a 1000 μM acetylcholine (ACh) concentration.
Cell handling procedures were adopted from Cellectricon application notes for Dynaflow. Briefly, after removal from the incubator, cells were washed thoroughly three times with recording medium and placed on the stage of a inverted Zeiss microscope. On average 5 min was necessary before the whole-cell recording configuration was established. To avoid modification of the cell conditions, a single cell was recorded per single load of cells into Dynaflow silicon chip. […] Cells were held at −60 mV throughout the experiment. […]

[8] = Radial arm maze (RAM) paradigm; format: in vivo; conditions: p.o. 30 minutes prior to daily session, 0.3 mg/kg, second week (FIG. 7)
Description: FIG. 7 illustrates an assessment of cognitive effects in a radial arm maze (RAM) paradigm.

M1 muscarinic receptors = biological target: T3, M1 muscarinic receptors (Homo sapiens, UniProt P11229); assay: Competitive binding inhibition, M1 muscarinic
T3 sequence (P11229 1-460): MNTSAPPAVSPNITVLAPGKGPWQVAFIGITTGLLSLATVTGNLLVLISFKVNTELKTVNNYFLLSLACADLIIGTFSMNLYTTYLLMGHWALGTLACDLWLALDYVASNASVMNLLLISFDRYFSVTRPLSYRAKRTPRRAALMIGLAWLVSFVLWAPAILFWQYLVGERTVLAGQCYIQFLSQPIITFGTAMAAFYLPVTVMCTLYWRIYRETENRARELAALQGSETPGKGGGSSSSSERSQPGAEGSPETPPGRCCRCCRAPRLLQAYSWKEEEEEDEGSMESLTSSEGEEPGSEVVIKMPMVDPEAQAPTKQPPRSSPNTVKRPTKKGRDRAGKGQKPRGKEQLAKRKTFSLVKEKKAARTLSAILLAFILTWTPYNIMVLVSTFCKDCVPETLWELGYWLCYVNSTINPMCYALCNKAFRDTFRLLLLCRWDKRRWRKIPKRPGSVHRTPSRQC

M2 muscarinic receptors = biological target: T4, M2 muscarinic receptors (Homo sapiens, UniProt P08172); assay: Competitive binding inhibition, M2 muscarinic
T4 sequence (P08172 1-466): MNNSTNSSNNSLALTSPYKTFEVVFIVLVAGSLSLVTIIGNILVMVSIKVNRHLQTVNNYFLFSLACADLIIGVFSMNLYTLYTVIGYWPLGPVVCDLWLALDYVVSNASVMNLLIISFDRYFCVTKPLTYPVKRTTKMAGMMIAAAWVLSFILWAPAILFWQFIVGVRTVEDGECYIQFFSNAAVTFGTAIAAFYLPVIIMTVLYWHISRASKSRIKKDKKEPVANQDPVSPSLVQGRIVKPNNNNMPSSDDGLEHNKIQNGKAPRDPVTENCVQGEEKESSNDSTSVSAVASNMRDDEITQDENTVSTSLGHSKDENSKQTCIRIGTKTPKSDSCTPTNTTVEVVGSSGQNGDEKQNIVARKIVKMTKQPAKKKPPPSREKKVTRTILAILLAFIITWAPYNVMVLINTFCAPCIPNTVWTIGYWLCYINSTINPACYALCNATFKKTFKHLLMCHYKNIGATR

α4β2 NNRs = α4β2 NNRs (Homo sapiens, UniProt P17787+P43681); assay: Binding to α4β2 NNRs
[9] = Pre-pulse inhibition (PPI), apomorphine-induced deficits; format: in vivo; conditions: subcutaneous pretreatment (FIG. 9)
human α4β2 sub-type = human α4β2 sub-type (Homo sapiens, UniProt P17787+P43681); assay: Electrophysiology, human α4β2 in Xenopus oocytes
Sequence of human α4β2 sub-type (P43681 29-627 limits assumed): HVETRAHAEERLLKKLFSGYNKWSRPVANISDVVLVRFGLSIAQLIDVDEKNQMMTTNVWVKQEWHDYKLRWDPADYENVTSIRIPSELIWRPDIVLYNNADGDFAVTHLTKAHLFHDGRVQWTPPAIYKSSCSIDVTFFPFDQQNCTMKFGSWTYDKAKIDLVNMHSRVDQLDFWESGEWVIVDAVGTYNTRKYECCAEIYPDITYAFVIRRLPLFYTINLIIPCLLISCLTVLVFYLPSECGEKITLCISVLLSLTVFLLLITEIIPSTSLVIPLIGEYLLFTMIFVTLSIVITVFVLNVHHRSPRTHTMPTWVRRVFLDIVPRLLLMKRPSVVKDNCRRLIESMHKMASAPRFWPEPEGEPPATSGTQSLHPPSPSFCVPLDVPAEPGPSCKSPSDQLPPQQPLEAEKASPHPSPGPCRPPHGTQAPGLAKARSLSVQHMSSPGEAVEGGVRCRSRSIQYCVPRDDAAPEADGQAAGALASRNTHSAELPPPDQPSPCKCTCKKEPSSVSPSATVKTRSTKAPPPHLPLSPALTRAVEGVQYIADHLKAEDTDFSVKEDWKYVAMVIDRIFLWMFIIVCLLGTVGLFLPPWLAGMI
Sequence of human α4β2 sub-type (P17787 26-502): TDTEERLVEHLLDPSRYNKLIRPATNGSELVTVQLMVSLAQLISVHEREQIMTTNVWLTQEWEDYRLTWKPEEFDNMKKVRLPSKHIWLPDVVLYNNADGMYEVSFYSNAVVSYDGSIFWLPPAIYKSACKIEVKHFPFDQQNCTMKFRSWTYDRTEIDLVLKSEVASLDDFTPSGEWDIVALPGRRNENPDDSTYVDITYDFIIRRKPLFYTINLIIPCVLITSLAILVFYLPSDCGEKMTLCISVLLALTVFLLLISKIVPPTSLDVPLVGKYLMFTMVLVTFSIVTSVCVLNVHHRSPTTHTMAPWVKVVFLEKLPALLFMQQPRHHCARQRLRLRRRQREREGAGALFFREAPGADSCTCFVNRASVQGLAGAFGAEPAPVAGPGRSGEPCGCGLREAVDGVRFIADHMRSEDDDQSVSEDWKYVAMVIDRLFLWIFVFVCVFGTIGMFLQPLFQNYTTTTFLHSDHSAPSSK

Sequence of rat α7 NNRs stably expressed in GH4C1 (mammalian) cells (Q05941 23-502): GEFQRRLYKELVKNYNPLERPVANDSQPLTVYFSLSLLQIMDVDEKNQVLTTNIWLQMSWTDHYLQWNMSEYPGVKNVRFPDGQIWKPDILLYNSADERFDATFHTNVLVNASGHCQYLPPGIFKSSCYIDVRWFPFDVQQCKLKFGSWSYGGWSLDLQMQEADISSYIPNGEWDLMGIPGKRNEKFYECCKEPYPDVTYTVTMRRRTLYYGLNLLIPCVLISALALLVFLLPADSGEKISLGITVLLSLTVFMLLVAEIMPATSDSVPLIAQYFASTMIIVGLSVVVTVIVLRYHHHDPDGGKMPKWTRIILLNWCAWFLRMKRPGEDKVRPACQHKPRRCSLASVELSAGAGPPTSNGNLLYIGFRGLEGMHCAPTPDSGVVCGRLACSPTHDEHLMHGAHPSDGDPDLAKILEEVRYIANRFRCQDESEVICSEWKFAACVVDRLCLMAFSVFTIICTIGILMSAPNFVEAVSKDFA
Sequence of α4β2 NNRs (P43681 29-627 limits assumed): as the sequence (P43681 29-627 limits assumed) above
Sequence of α4β2 NNRs (P17787 26-502): as the sequence (P17787 26-502) above
Sequence of human α7 NNRs (P36544 23-502): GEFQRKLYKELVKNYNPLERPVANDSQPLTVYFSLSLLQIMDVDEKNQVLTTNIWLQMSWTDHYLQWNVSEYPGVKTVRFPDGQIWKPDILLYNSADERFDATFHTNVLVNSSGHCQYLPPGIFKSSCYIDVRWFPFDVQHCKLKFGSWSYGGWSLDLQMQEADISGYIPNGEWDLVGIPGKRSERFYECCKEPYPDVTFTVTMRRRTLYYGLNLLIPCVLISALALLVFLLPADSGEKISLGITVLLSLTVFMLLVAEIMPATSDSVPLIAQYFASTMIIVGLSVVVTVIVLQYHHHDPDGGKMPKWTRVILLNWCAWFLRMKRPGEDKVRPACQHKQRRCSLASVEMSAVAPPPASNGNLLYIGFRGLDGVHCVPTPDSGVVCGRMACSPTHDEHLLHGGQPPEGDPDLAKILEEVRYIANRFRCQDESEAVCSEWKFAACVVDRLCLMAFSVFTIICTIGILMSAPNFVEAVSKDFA

For `O=C(N[C@@H]1C2CCN(CC2)[C@H]1Cc1cccnc1)c1cc2ccccc2o1.O=P(O)(O)O` [phosphoric acid salt], the Water solubility [1] was “good water solubility” and the Hygroscopicity [2] was “low hygroscopicity”.

For `O=C(N[C@@H]1C2CCN(CC2)[C@H]1Cc1cccnc1)c1cc2ccccc2o1.O=C(O)/C=C\C(=O)O` [maleic acid salt], the Water solubility [1] was “good water solubility” and the Hygroscopicity [2] was “low hygroscopicity”.

With `Cl.O=C(N[C@@H]1C2CCN(CC2)[C@H]1Cc1cccnc1)c1cc2ccccc2o1` [hydrochloric acid salt] the Water solubility [1] was “good water solubility” and the Hygroscopicity [2] was “low hygroscopicity”.

For `Cc1ccc(S(=O)(=O)O)cc1.O=C(N[C@@H]1C2CCN(CC2)[C@H]1Cc1cccnc1)c1cc2ccccc2o1` [p-toluenesulfonic acid salt], the Water solubility [1] was “good water solubility”, the Hygroscopicity [2] was “low hygroscopicity” and the “XRPD form after storage” value [3] was “reveals a change but the sample is still Form 1”.

For `O=C(N[C@@H]1C2CCN(CC2)[C@H]1Cc1cccnc1)c1cc2ccccc2o1` (single isomer, unassigned) [Compound A], the “Duration of cognitive effects in OR” value (rats [4]; 0.3 mg/kg orally (FIG. 6)) was “at least 18 hours”, the “Time investigating novel versus familiar object” value (rats [4]; 0.3 mg/kg p.o. sub-acute, 30 min, 2 h, 6 h and 18 h after final administration) was “significantly (P<0.05) more time investigating object B (novel) than object A (familiar)” and the “Cognitive effects in object recognition, i.p.” value (rats [4]; rats, 0.3 and 1 mg/kg i.p. (FIG. 3)) was “potent activity”. The “Cognitive effects in object recognition, p.o.” value (rats [4]; rats, p.o., 0.3-10 mg/kg (FIG. 4)) was “potent activity; also recorded: activity across a wide dose range”, the Water solubility [1] was “very limited water solubility” and the inhibition at 10 µM (mouse 5HT3 receptor) was 59%. For the same compound, the inhibition at 10 µM (human 5HT3 receptor) was 25%, the “Effect on apomorphine-induced locomotor hyperactivity” value (rats [5]) was “displays effectiveness in reversing apomorphine-induced locomotor activity” and the “Effect on MK-801 induced deficits in the OR task” value (rats [6]) was “tends to reverse MK-801 induced deficits”. For the same compound, the Emax (human α7 NNRs) was 100%, the Emax ([7]; GH4-C1, read-out: Emax relative to acetylcholine (ACh)) was 93% and the “Functional activity at the α7 subtype” value ([7]; rat α7 in GH4C1 cells, FIGS. 1A.2 and 1B) was “potent agonism throughout the concentration range of 1-50 nM”. The “Performance in radial arm maze (working memory)” value [8] was “significantly increased the number of correct choices prior to error”, the “Interaction with M1 muscarinic receptors” value (M1 muscarinic receptors) was “minimal to no interaction” and the “Interaction with M2 muscarinic receptors” value (M2 muscarinic receptors) was “minimal to no interaction”. For the same compound, the Ki (α4β2 NNRs) was greater than 2000 nM, the “Effect on apomorphine-induced prepulse inhibition deficits” value [9] was “displays effectiveness” and the “Activation of human α4β2” value (human α4β2 sub-type) was “no detectable activation”. For the same compound, the “Decreases in subsequent control responses to ACh at α4β2” value (human α4β2 sub-type) was “no significant decreases”.
